Here are results for 21 molecules from patent US10577378B2, “EIF4A-inhibiting compounds and methods related thereto” (eFFECTOR Therapeutics, Inc., priority 2015, dated 2020).

This assay relates to MDA-MB-231 human breast cancer cells. The experiment in a line: Cell proliferation assay (CellTiter-Glo, 72 hours treatment). It counts as cell-based. The following applies: Homo sapiens; MDA-MB-231 cells, 72 hours at 37° C., CellTiter-Glo; read-out: MDA-MB-231 cell proliferation assay (IC50). The gist of the method: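 MDA-MB-231 cells seeded at 2,500 cells/well, treated next day with compound or DMSO vehicle for 72 h at 37 °C. Proliferation read by CellTiter-Glo; IC50 from sigmoidal non-linear regression, binned as +++ (<100 nM), ++ (100–1000 nM), + (>1000 nM).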
A general note: Cellular ATP, detected with luciferase, serves as a proxy for viable cell number.

Take `COc1nc(Cl)cc2c1[C@]1(O)[C@@H](CN(C)C)[C@H](CO)[C@@H](c3ccccc3)[C@]1(c1ccc(Br)cc1)O2` (racemic) [209F, Rac-(5aR,6S,7R,8R,8aR)-5a-(4-bromophenyl)-3-chloro-8-((dimethylamino)methyl)-7-(hydroxymethyl)-1-methoxy-6-phenyl-5a,6,7,8-tetrahydro-8aH-cyclopenta[4,5]furo[3,2-c]pyridin-8a-ol]: the IC50 is < 100 nM.

For `COc1nc(C#N)cc2c1[C@]1(O)[C@@H](CN(C)C)[C@H](CO)[C@@H](c3ccccc3)[C@]1(c1ccc(C#N)cc1)O2` (racemic) [210F, Rac-(5aR,6S,7R,8R,8aR)-5a-(4-cyanophenyl)-8-((dimethylamino)methyl)-8a-hydroxy-7-(hydroxymethyl)-1-methoxy-6-phenyl-5a,7,8,8a-tetrahydro-6H-cyclopenta[4,5]furo[3,2-c]pyridine-3-carbonitrile], the IC50 was < 100 nM.

For the molecule `COc1nc(C#N)cc2c1[C@]1(O)[C@H](O)[C@H](CN3CC(F)C3)[C@@H](c3ccccc3)[C@]1(c1ccc(C#N)cc1)O2` (racemic) [211Fa, Rac-(5aR,6S,7S,8R,8aS)-5a-(4-cyanophenyl)-7-((3-fluoroazetidin-1-yl)methyl)-8,8a-dihydroxy-1-methoxy-6-phenyl-5a,7,8,8a-tetrahydro-6H-cyclopenta[4,5]furo[3,2-c]pyridine-3-carbonitrile], the IC50 was < 100 nM.

As for `COc1nc(Cl)cc2c1[C@]1(O)[C@H](O)[C@H](CN3CC(F)C3)[C@@H](c3ccccc3)[C@]1(c1ccc(C#N)cc1)O2` (racemic) [211Fb, Rac-4-((5aR,6S,7S,8R,8aS)-3-chloro-7-((3-fluoroazetidin-1-yl)methyl)-8,8a-dihydroxy-1-methoxy-6-phenyl-6,7,8,8a-tetrahydro-5aH-cyclopenta[4,5]furo[3,2-c]pyridin-5a-yl)benzonitrile], the IC50 is < 100 nM.

Regarding `COc1nc(C#N)cc2c1[C@]1(O)[C@@H](CN3CCC(F)(F)CC3)[C@H](CO)[C@@H](c3ccccc3)[C@]1(c1ccc(C#N)cc1)O2` (racemic) [213F, Rac-(5aR,6S,7R,8R,8aR)-5a-(4-cyanophenyl)-8-((4,4-difluoropiperidin-1-yl)methyl)-8a-hydroxy-7-(hydroxymethyl)-1-methoxy-6-phenyl-5a,7,8,8a-tetrahydro-6H-cyclopenta[4,5]furo[3,2-c]pyridine-3-carbonitrile], the IC50 was < 100 nM.

As to `CC1(C)COCCN1C[C@H]1[C@@H](O)[C@@]2(O)c3ncc(Cl)cc3O[C@@]2(c2ccc(Br)cc2)[C@@H]1c1ccccc1` (racemic) [214F, Rac-(5aR,6S,7S,8R,8aS)-5a-(4-bromophenyl)-3-chloro-7-((3,3-dimethylmorpholino)methyl)-6-phenyl-5a,6,7,8-tetrahydro-8aH-cyclopenta[4,5]furo[3,2-b]pyridine-8,8a-diol], the IC50 fell in the range of 100 to 1000 nM.

Consider `COc1nc(Cl)cc2c1[C@]1(O)[C@H](O)[C@H](C(=O)N3CC(C(F)F)C3)[C@@H](c3ccccc3)[C@]1(c1ccc(Br)cc1)O2` (racemic) [215F, Rac-((5aR,6S,7R,8R,8aS)-5a-(4-bromophenyl)-3-chloro-8,8a-dihydroxy-1-methoxy-6-phenyl-5a,7,8,8a-tetrahydro-6H-cyclopenta[4,5]furo[3,2-c]pyridin-7-yl)(3-(difluoromethyl)azetidin-1-yl)methanone], for which the IC50 was < 100 nM.

Turning to `COc1nc(Cl)cc2c1[C@]1(O)[C@H](O)[C@H](CN3CC(C(F)F)C3)[C@@H](c3ccccc3)[C@]1(c1ccc(C#N)cc1)O2` (racemic) [217F, rac-4-((5aR,6S,7S,8R,8aS)-3-chloro-7-((3-(difluoromethyl)azetidin-1-yl)methyl)-8,8a-dihydroxy-1-methoxy-6-phenyl-6,7,8,8a-tetrahydro-5aH-cyclopenta[4,5]furo[3,2-c]pyridin-5a-yl)benzonitrile], the IC50 was < 100 nM.

`COc1nc(C#N)cc2c1[C@]1(O)[C@H](O)[C@H](CN3CC(C(F)F)C3)[C@@H](c3ccccc3)[C@]1(c1ccc(C#N)cc1)O2` (racemic) [218F, Rac-(5aR,6S,7S,8R,8aS)-5a-(4-cyanophenyl)-7-((3-(difluoromethyl)azetidin-1-yl)methyl)-8,8a-dihydroxy-1-methoxy-6-phenyl-5a,7,8,8a-tetrahydro-6H-cyclopenta[4,5]furo[3,2-c]pyridine-3-carbonitrile]: the IC50 was < 100 nM.

As for `COc1nc(Cl)cc2c1[C@]1(O)[C@H](O)[C@H](C(=O)N3CCC34CC4(F)F)[C@@H](c3ccccc3)[C@]1(c1ccc(Br)cc1)O2` (mixture of isomers) [219F, Rac-((5aR,6S,7R,8R,8aS)-5a-(4-bromophenyl)-3-chloro-8,8a-dihydroxy-1-methoxy-6-phenyl-5a,7,8,8a-tetrahydro-6H-cyclopenta[4,5]furo[3,2-c]pyridin-7-yl)(1,1-difluoro-4-azaspiro[2.3]hexan-4-yl)methanone], the IC50 is < 100 nM.

As to `COc1nc(Cl)cc2c1[C@]1(O)[C@H](O)[C@H](CN3CCC34CC4(F)F)[C@@H](c3ccccc3)[C@]1(c1ccc(Br)cc1)O2` (mixture of isomers) [220F, Rac-(5aR,6S,7S,8R,8aS)-5a-(4-bromophenyl)-3-chloro-7-((1,1-difluoro-4-azaspiro[2.3]hexan-4-yl)methyl)-1-methoxy-6-phenyl-5a,6,7,8-tetrahydro-8aH-cyclopenta[4,5]furo[3,2-c]pyridine-8,8a-diol], the IC50 is < 100 nM.

On to `COc1nc(C#N)cc2c1[C@]1(O)[C@H](O)[C@H](CN3CCC34CC4(F)F)[C@@H](c3ccccc3)[C@]1(c1ccc(C#N)cc1)O2` (mixture of isomers) [221F, Rac-(5aR,6S,7S,8R,8aS)-5a-(4-cyanophenyl)-7-((1,1-difluoro-4-azaspiro[2.3]hexan-4-yl)methyl)-8,8a-dihydroxy-1-methoxy-6-phenyl-5a,7,8,8a-tetrahydro-6H-cyclopenta[4,5]furo[3,2-c]pyridine-3-carbonitrile], for which the IC50 is < 100 nM.

For `COc1nc(Cl)cc2c1[C@]1(O)[C@H](O)[C@H](CN3CCC34CC4(F)F)[C@@H](c3ccccc3)[C@]1(c1ccc(C#N)cc1)O2` (mixture of isomers) [222F, Rac-4-((5aR,6S,7S,8R,8aS)-3-chloro-7-((1,1-difluoro-4-azaspiro[2.3]hexan-4-yl)methyl)-8,8a-dihydroxy-1-methoxy-6-phenyl-6,7,8,8a-tetrahydro-5aH-cyclopenta[4,5]furo[3,2-c]pyridin-5a-yl)benzonitrile], the IC50 was < 100 nM.

`CNC[C@H]1[C@@H](O)[C@@]2(O)c3c(cc(Cl)nc3OC)O[C@@]2(c2ccc(C#N)cc2)[C@@H]1c1ccccc1` (racemic) [224F, Rac-4-((5aR,6S,7S,8R,8aS)-3-chloro-8,8a-dihydroxy-1-methoxy-7-((methylamino)methyl)-6-phenyl-6,7,8,8a-tetrahydro-5aH-cyclopenta[4,5]furo[3,2-c]pyridin-5a-yl)benzonitrile]: the IC50 is < 100 nM.

Turning to `CNC[C@H]1[C@@H](O)[C@@]2(O)c3c(cc(C#N)nc3OC)O[C@@]2(c2ccc(C#N)cc2)[C@@H]1c1ccccc1` (racemic) [225F, Rac-(5aR,6S,7S,8R,8aS)-5a-(4-cyanophenyl)-8,8a-dihydroxy-1-methoxy-7-((methylamino)methyl)-6-phenyl-5a,7,8,8a-tetrahydro-6H-cyclopenta[4,5]furo[3,2-c]pyridine-3-carbonitrile], the IC50 is < 100 nM.

Take `COc1cncc2c1[C@]1(O)[C@@H](CNC(C)(C)C)[C@H](CO)[C@@H](c3ccccc3)[C@]1(c1ccc(Br)cc1)O2` (racemic) [226F, Rac-(4bR,5R,6R,7S,7aR)-7a-(4-bromophenyl)-5-((tert-butylamino)methyl)-6-(hydroxymethyl)-4-methoxy-7-phenyl-5,6,7,7a-tetrahydro-4bH-cyclopenta[4,5]furo[2,3-c]pyridin-4b-ol]: the IC50 was < 100 nM.

For `CN(C)C[C@H]1[C@@H](C#N)[C@@]2(O)c3ncc(Cl)cc3O[C@@]2(c2ccc(Br)cc2)[C@@H]1c1ccccc1` (racemic) [227F, Rac-(5aR,6S,7R,8S,8aR)-5a-(4-bromophenyl)-3-chloro-7-((dimethylamino)methyl)-8a-hydroxy-6-phenyl-5a,7,8,8a-tetrahydro-6H-cyclopenta[4,5]furo[3,2-b]pyridine-8-carbonitrile], the IC50 is > 1000 nM.

Turning to `CN(C)C[C@H]1[C@@H](C#N)[C@@]2(O)c3ncc(Cl)cc3O[C@@]2(c2ccc(C#N)cc2)[C@@H]1c1ccccc1` (racemic) [228F, Rac-(5aR,6S,7R,8S,8aR)-3-chloro-5a-(4-cyanophenyl)-7-((dimethylamino)methyl)-8a-hydroxy-6-phenyl-5a,7,8,8a-tetrahydro-6H-cyclopenta[4,5]furo[3,2-b]pyridine-8-carbonitrile], the IC50 was > 1000 nM.

In the case of `COc1cc2c(c(OC)n1)[C@]1(O)[C@H](O)[C@H](C(=O)N(C)C)[C@@H](c3ccccc3)[C@]1(c1ccc(Br)cc1)O2` (racemic) [229F, rac-(5aR,6S,7R,8R,8aS)-5a-(4-bromophenyl)-8,8a-dihydroxy-1,3-dimethoxy-N,N-dimethyl-6-phenyl-5a,7,8,8a-tetrahydro-6H-cyclopenta[4,5]furo[3,2-c]pyridine-7-carboxamide], the IC50 was < 100 nM.

As for `COc1cc2c(c(OC)n1)[C@]1(O)[C@H](O)[C@H](CN(C)C)[C@@H](c3ccccc3)[C@]1(c1ccc(Br)cc1)O2` (racemic) [230F, Rac-(5aR,6S,7S,8R,8aS)-5a-(4-bromophenyl)-7-((dimethylamino)methyl)-1,3-dimethoxy-6-phenyl-5a,6,7,8-tetrahydro-8aH-cyclopenta[4,5]furo[3,2-c]pyridine-8,8a-diol], the IC50 is < 100 nM.

As to `CCN(CC)C[C@H]1[C@@H](O)[C@@]2(O)c3c(cc(OC)nc3OC)O[C@@]2(c2ccc(C#N)cc2)[C@@H]1c1ccccc1` (racemic) [232F, Rac-4-((5aR,6S,7S,8R,8aS)-7-((diethylamino)methyl)-8,8a-dihydroxy-1,3-dimethoxy-6-phenyl-6,7,8,8a-tetrahydro-5aH-cyclopenta[4,5]furo[3,2-c]pyridin-5a-yl)benzonitrile], the IC50 was < 100 nM.
